Like-named read-outs stand apart in the source and are kept apart here.
Columns and labels:
[1] = target: T1, human S-adenosyl-homocysteine hydrolase (rSAHH) (Homo sapiens, UniProt P23526); assay: SAHH inhibition, IC50 determination with recombinant SAHH (hydrolysis of SAH, Hcy determined with DTNB); assay type: biochemical
Method: The activity of SAHH was expressed in units (U), which were defined as 1 μmol of SAH catalyzed by the enzyme per minute. Specific enzymatic activities (aspec) were calculated through the division of the enzymatic activities by the total protein amount used per assay and are expressed in U/mg. […] All of the values shown correspond to the mean values of at least three independent experiments, each of which was conducted in duplicate and all of the calculations were performed using Origin version 8.5 software and GraphPad Prism 5.
Stock solution of compounds (1 mM) for enzyme inhibition was prepared in DMSO. Both enzymes and substrates are diluted in Tris-HCl (pH = 6.5) to specified concentration when used for IC50 determination.
SAH is hydrolysed by SAHH into Hcy and adenosine. And Hcy can be directly determined using Ellman reagent (DTNB)[17].

SAHH = test system: SAHH; parameters: method as in PMID 24813734; conditions: data from literature; cited from earlier work
brain homocysteine = test system: brain homocysteine; parameters: method as in PMID 24813734; conditions: reported by Converso; cited from earlier work
[2] = parameters: method as in PMID 24813734; conditions: long term exposure; cited from earlier work
[3] = target: T1, human S-adenosyl-homocysteine hydrolase (rSAHH); assay: Enzyme kinetics of SAHH-catalyzed hydrolysis of SAH; assay type: biochemical
Method: The activity of SAHH was expressed in units (U), which were defined as 1 μmol of SAH catalyzed by the enzyme per minute. Specific enzymatic activities (aspec) were calculated through the division of the enzymatic activities by the total protein amount used per assay and are expressed in U/mg. SAHH enzyme reacted with the SAH at different temperature and different pH, in order to identify its optimal reaction conditions. All of the values shown correspond to the mean values of at least three independent experiments, each of which was conducted in duplicate and all of the calculations were performed using Origin version 8.5 software and GraphPad Prism 5.
The enzyme kinetic parameters (Km and Kcat) were calculated by least-squares fitting of the activity data at various substrate concentrations to the Michaelis–Menten equation with Origin version 8.5 software (Microcal Software, Northampton, MA).

[4] = recombinant human SAHH, Tris-HCl pH 6.5, read-out: SAHH IC50

T1 sequence (P23526 whole entry): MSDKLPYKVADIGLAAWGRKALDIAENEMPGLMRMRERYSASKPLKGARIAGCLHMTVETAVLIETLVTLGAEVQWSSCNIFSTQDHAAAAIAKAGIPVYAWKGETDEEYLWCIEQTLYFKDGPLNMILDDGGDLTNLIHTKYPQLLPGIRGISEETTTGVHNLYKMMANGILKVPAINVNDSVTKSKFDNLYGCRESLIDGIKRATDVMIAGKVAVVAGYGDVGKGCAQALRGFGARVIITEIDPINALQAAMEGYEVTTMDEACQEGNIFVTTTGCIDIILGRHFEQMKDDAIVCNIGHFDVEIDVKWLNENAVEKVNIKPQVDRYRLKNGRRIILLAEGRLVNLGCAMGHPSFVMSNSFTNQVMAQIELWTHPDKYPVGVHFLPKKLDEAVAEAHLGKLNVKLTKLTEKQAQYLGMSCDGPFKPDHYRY

## O=C(O)c1ccc(F)cc1 [Compound 8]
[1]; [4]
  IC50: 679 nM

## O=C(OO)c1ccc(Cl)cc1 [Compound 6]
[1]
  IC50: 565 nM

## COc1ccc(C=O)cc1 [Compound 2]
[1]; [4]
  IC50: 2130 nM

## Oc1ccc(Cl)c(O)c1 [Compound 7]
[1]
  IC50: 1110 nM

## COc1ccc(N)cc1 [Compound 9]
[1]; [4]
  IC50: 899 nM

## O=C(O)/C=C/c1ccc(Cl)cc1 [Compound 12]
[1]; [4]
  IC50: 571 nM

## COC(=O)/C=C/c1ccc(CBr)cc1 [Compound 4]
[1]; [4]
  IC50: 814 nM

## Fc1ccc(CBr)c(F)c1 [Compound 3]
[1]
  IC50: 913 nM

## COc1cc(C=O)ccc1O [Compound 5]
[1]; [4]
  IC50: 1100 nM

## Nc1ncc(F)c2c1ncn2[C@@H]1CC[C@@H](O)[C@H]1O [20 ^*]
SAHH
  IC50: 40 nM
Brain homocysteine
  effect on brain homocysteine: reduce brain homocysteine in a dose-dependent manner

## Nc1ncnc2c1ncn2[C@@H]1C=C(CO)[C@@H](O)[C@H]1O [NepA, Neplanocin A]
[2]
  cytotoxicity: cytotoxic upon long term exposure
SAHH
  IC50: 1.5 nM

## On1nnc2ccccc21 [Compound 1]
[1]
  IC50: 1240 nM

## Nc1ncnc2c1ncn2[C@@H]1O[C@H](CSCC[C@H](N)C(=O)O)[C@@H](O)[C@H]1O [SAH, S-adenosylhomocysteine]
[3]; read-out: apparent Km of the hydrolytic reaction, substrate SAH
  Km: ~21.8 µM
[3]; substrate SAH
  Vmax: 22.9 µM/min

## CCOC(=O)c1ccc(N)cc1 [Compound 10]
[1]; [4]
  IC50: 1400 nM

## COc1cc(C=CCO)ccc1O [Compound 13, 4-(3-hydroxyprop-1-en-1-yl)-2-methoxyphenol]
[1]; [4]
  IC50: 34 nM

## COc1ccc(/C=C/C(=O)O)cc1 [Compound 11]
[1]; [4]
  IC50: 986 nM
